Source: patent publication US20230365530A1, “QUINAZOLINE-2,4-DIAMINE DERIVATIVE AND PHARMACEUTICAL COMPOSITION FOR PREVENTING OR TREATING CANCER COMPRISING SAME AS ACTIVE INGREDIENT” (THE ASEAN FOUNDATION, priority 2020, published 2023)

How the values were obtained:
[1] = tested on: MC38 syngeneic model; experiment: Combination therapy with anti CTLA-4 in MC38 syngeneic model; format: in vivo, C57BL/6 mouse
Description: In order to confirm the synergistic efficacy of the combination therapy of the compounds of Examples of the present invention and a cancer immunotherapy agent (anti CTLA-4) in a syngeneic animal model transplanted with a mouse colorectal cancer cell line, a cancer cell growth inhibition experiment was conducted in the MC38 syngeneic model. Specific experimental methods are as follows. The frozen MC38 cell line was thawed and cultured in DMEM (Dulbecco's modified Eagle's medium) supplemented with 10% FBS and 1% penicillin-streptomycin in a 37° C., 5% CO2 incubator. The thawed cells were cultured for more than one week, and subcultured at intervals of 2-3 days, confirming that there was no infection with bacteria, yeast (cell image) and mycoplasma. The cells were stained with trypan blue, and those having a survival rate of 90% or more were used for transplantation. The cells were suspended using trypsin-EDTA and then suspended in cold PBS. MC38 cells (1×10^5 cells/150 μl) were subcutaneously transplanted under the right scapula of the C57BL/6 mouse, which had been acclimated for about 1 week. From the 3rd day after the transplantation, tumor formation and growth were observed, and the volume of the tumor was calculated according to the following equation using the measured tumor length. [Tumor volume=(a^2b)/2, a: short diameter, b: long diameter] When the average tumor volume of all mice on the day after tumor transplantation was 80±20 mm^3, the mice were grouped by paired-matching. Drugs were dissolved in 40% polyethylene glycol 400+16% 2-hydroxypropyl-b-cyclodextrin. The compounds of Examples of the present invention were intraperitoneally administered at 30 mg/kg once a day for 4 weeks, and the CTLA-4 antibody (BioX Cell, cat. BE1031) was intraperitoneally administered at 10 mg/kg three times a week. A tumor growth curve was prepared using the tumor volume from the start date of drug administration to the end of the test. The results are shown in FIG. 2, and the tumor growth inhibition rates of the compounds of Examples to the control group are shown in Table 5.

[2] = tested on: Miapaca2 xenograft model; experiment: Tumor growth inhibition in Miapaca2 xenograft model; format: in vivo, Athymic nude mouse; settings: 20 mg/kg intraperitoneally once a day for 4 weeks
Description: In order to confirm the tumor growth inhibitory effect of the compounds of Examples according to the present invention in a xenograft model in which the human pancreatic cancer cell line was transplanted, a cancer growth inhibition experiment was conducted in the Miapaca2 xenograft model.
Specific experimental methods are as follows. The frozen Miapaca-2 cell line was thawed and cultured in DMEM (Dulbecco's modified Eagle's medium) supplemented with 10% FBS and 1% penicillin-streptomycin in a 37° C., 5% CO2 incubator. The thawed cells were cultured for more than one week, and subcultured at intervals of 2˜3 days, confirming that there was no infection with bacteria, yeast (cell image) and mycoplasma. The cells were stained with trypan blue, and those having a survival rate of 90% or more were used for transplantation. The cells were suspended using trypsin-EDTA and then suspended in a cold solution (PBS:matrigel=6:4). Miapaca-2 cells (4×10^6 cells/[…]) were subcutaneously transplanted under the right scapula of the Athymic nude mouse, which had been acclimated for about 1 week. From the 3rd day after the transplantation, tumor formation and growth were observed, and the volume of the tumor was calculated according to the following equation using the measured tumor length.
[Tumor volume=(a^2b)/2, a: short diameter, b: long diameter]
When the average tumor volume of all mice on the day after tumor transplantation was 80±20 mm^3, the mice were grouped by paired-matching. Drugs were dissolved in 40% polyethylene glycol 400+16% 2-hydroxypropyl-b-cyclodextrin. The drugs were intraperitoneally administered at 20 mg/kg once a day for 4 weeks. A tumor growth curve was prepared using the tumor volume from the start date of drug administration to the end of the test. The results are shown in FIG. 1, and the tumor growth inhibition rates of the compounds of Examples to the control group are shown in Table 4.

[3] = tested on: pancreatic cancer cell line Miapaca 2; experiment: Cancer cell growth inhibition test, CellTiter-glo; format: cell-based; settings: Homo sapiens, MIA PaCa-2, Miapaca 2 cells, 72 hours
Description: In order to confirm the effect of reducing cell viability by inhibiting EHMT2 by the compounds of Examples in cells, the effect of inhibiting cancer cell growth was analyzed using CellTiter-glo™ analysis (Promega, cat. G7573) method. Specifically, the amount of ATP in living cells was measured and IC50 values were calculated using software to compare the inhibitory effect of the compounds of Examples on cell viability. First, the pancreatic cancer cell line Miapaca 2 was placed in a 96-well cell culture plate at the density of 1×10^3 cells/well and cultured overnight, and then each well of the plate was treated with 1 nM to 100 μM of the compounds of Examples 1 to 89 at each concentration for 72 hours (The final concentration of DMSO in each well was 0.5% or less). CellTiter-glo 2.0 reagent was mixed with a medium at 20% of the amount of the medium, reacted at room temperature for 10 minutes, and then 80 μL of the mixture was transferred to each well of a 96-well plate, followed by measuring the degree of luminescence.

[4] = target: EHMT2 (Euchromatic histone-lysine N-methyltransferase 2) (Homo sapiens (Human), UniProt Q96KQ7); experiment: EHMT2 enzyme inhibition, LANCE TR-FRET; format: biochemical; settings: histone H3 peptide, 1 hour at room temperature
How it was run: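 EHMT2/G9a enzyme preincubated 10 min with SAM and compounds (1 nM–100 μM, 4× stocks), then reacted 1 hour at room temperature with biotinylated histone H3 peptide (2 μM, 4× stock). H3K9 methylation detected by Eu-antibody/ULight-streptavidin TR-FRET at 665 nm; background-subtracted activity expressed relative to 4% DMSO vehicle; IC50 calculated.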

Chain of EHMT2 (Euchromatic histone-lysine N-methyltransferase 2) (Q96KQ7 whole entry): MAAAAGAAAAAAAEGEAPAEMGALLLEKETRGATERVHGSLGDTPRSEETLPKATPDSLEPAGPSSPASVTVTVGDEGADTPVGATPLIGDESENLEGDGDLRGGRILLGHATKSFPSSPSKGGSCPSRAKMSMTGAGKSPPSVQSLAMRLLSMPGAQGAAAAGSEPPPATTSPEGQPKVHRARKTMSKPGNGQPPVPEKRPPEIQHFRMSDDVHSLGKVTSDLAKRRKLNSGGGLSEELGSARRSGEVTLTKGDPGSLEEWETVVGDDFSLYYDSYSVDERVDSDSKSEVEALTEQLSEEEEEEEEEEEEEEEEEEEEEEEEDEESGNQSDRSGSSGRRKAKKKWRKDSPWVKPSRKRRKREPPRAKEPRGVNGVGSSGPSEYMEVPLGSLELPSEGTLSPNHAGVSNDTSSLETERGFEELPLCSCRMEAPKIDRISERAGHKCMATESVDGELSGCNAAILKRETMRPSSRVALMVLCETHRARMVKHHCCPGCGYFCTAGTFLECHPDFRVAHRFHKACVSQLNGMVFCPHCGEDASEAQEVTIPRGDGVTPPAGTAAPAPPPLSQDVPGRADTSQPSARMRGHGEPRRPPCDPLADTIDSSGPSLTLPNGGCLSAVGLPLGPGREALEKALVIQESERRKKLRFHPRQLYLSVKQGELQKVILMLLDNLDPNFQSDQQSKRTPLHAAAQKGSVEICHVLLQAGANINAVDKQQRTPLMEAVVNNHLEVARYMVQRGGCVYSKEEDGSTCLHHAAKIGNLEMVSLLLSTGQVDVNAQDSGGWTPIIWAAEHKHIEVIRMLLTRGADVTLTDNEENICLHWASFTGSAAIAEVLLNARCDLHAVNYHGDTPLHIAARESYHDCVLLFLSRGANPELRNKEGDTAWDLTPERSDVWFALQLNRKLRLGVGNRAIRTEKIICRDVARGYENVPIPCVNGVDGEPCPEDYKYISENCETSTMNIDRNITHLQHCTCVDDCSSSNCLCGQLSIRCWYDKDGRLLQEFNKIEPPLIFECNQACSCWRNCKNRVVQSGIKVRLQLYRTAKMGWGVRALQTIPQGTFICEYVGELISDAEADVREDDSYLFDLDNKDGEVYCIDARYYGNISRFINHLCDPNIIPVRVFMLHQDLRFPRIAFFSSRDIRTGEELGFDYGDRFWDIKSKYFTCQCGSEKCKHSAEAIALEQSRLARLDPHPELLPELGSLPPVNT

| IC50 [3] [nM] | IC50 [4] [nM] | Compound | Effect of combination with cancer immunotherapy agent (in words) ([1]; combined with anti CTLA-4) | Tumor growth inhibition rate (TGI) ([1]; compound alone, 30 mg/kg intraperitoneally once a day for 4 weeks) [%] | Anticancer activity alone (in words) ([1]; treated alone) | Tumor growth inhibition rate (TGI) [2] |
| --- | --- | --- | --- | --- | --- | --- |
| 655 | < 100 | COc1cc2c(NC3CCN(C(C)C)CC3)nc(N3CCCCC3)nc2cc1C#CCCN(C)C [Example 3, 7-(4-(dimethylamino)-1-butyne-1-yl)-N-(1-isopropylpiperidine-4-yl)-6-methoxy-2-(piperidine-1-yl)quinazoline-4-amine] | enhancing the anticancer activity of a cancer immunotherapy agent | 3.00 | inhibits tumor growth even when treated alone | 42.47 |
| 338 | < 100 | COc1cc2c(NC3CCN(C(C)C)CC3)nc(N(C)C)nc2cc1C#CCCN(C)C [Example 14] | – | – | – | – |
| 304 | < 100 | COc1cc2c(NC3CCN(C(C)C)CC3)nc(N3CCCC3)nc2cc1C#CCCN1CCCC1 [Example 42, N-(1-isopropylpiperidine-4-yl)-6-methoxy-2-(pyrrolidine-1-yl)-7-(4-(pyrrolidine-1-yl)-1-butyne-1-yl)quinazoline-4-amine] | – | – | – | – |
| 333 | < 100 | COc1cc2c(NC3CCN(C(C)C)CC3)nc(N(C)C)nc2cc1C#CCCN1CCCC1 [Example 49, N4-(1-isopropylpiperidine-4-yl)-6-methoxy-N2,N2-dimethyl-7-(4-(pyrrolidine-1-yl)-1-butyne-1-yl)quinazoline-2,4-diamine] | – | – | – | – |
| 464 | < 100 | COc1cc2c(NCCN(C)C)nc(N3CCCC3)nc2cc1C#CCCN1CCCC1 [Example 52, N1-(6-methoxy-2-(pyrrolidine-1-yl)-7-(4-(pyrrolidine-1-yl)-1-butyne-1-yl)quinazoline-4-yl)-N2,N2-dimethylethane-1,2-diamine] | – | – | – | 26.39 |
| 307 | < 100 | COc1cc2c(NC3CCN(C4CC4)CC3)nc(N(C)C)nc2cc1C#CCCN1CCCC1 [Example 55, N4-(1-cyclopropylpiperidine-4-yl)-6-methoxy-N2,N2-dimethyl-7-(4-(pyrrolidine-1-yl)-1-butyne-1-yl)quinazoline-2,4-diamine] | – | – | – | 31.80 |
| 192 | < 100 | COc1cc2c(NC3CCN(C4CC4)CC3)nc(N3CCCN(C)CC3)nc2cc1C#CCCN1CCCC1 [Example 56, N-(1-cyclopropylpiperidine-4-yl)-6-methoxy-2-(4-methyl-1,4-diazepane-1-yl)-7-(4-(pyrrolidine-1-yl)-1-butyne-1-yl)quinazoline-4-amine] | – | – | – | – |
| 669 | < 100 | COc1cc2c(NC3CCN(C(C)C)CC3)nc(N3CC[C@@H](F)C3)nc2cc1C#CCCN1CCCC1 [Example 60, (R)-2-(3-fluoropyrrolidine-1-yl)-N-(1-isopropylpiperidine-4-yl)-6-methoxy-7-(4-(pyrrolidine-1-yl)-1-butyne-1-yl)quinazoline-4-amine] | – | – | – | – |
| – | < 100 | COc1cc2c(NC3CCN(CCO)CC3)nc(N(C)C)nc2cc1C#CCCN1CCCC1 [Example 87, 2-(4-((2-(dimethylamino)-6-methoxy-7-(4-(pyrrolidine-1-yl)-1-butyne-1-yl)quinazoline-4-yl)amino)piperidine-1-yl) ethanol] | – | – | – | – |
| – | 100 to 1000 | COc1cc2c(NC3CCN(C(C)C)CC3)nc(Nc3cnn(C)c3)nc2cc1C#CCCN1CCCC1 [Example 88, N4-(1-isopropylpiperidine-4-yl)-6-methoxy-N2-(1-methyl-1H-pyrazole-4-yl)-7-(4-(pyrrolidine-1-yl)-1-butyne-1-yl)quinazoline-2,4-diamine] | – | – | – | – |
| – | < 100 | COc1cc2c(NC3CCN(CCO)CC3)nc(N3CC[C@@H](F)C3)nc2cc1C#CCCN1CCCC1 [Example 89] | – | – | – | – |
